This is an account of results in US9399623B2, “Quinoline derivatives and their use in neurodegenerative diseases” (Merck Patent GmbH, priority 2014, dated 2016).

The target of test [1] is T1, P2X7 (Homo sapiens, UniProt Q99572).
T1 sequence (Q99572 1-595): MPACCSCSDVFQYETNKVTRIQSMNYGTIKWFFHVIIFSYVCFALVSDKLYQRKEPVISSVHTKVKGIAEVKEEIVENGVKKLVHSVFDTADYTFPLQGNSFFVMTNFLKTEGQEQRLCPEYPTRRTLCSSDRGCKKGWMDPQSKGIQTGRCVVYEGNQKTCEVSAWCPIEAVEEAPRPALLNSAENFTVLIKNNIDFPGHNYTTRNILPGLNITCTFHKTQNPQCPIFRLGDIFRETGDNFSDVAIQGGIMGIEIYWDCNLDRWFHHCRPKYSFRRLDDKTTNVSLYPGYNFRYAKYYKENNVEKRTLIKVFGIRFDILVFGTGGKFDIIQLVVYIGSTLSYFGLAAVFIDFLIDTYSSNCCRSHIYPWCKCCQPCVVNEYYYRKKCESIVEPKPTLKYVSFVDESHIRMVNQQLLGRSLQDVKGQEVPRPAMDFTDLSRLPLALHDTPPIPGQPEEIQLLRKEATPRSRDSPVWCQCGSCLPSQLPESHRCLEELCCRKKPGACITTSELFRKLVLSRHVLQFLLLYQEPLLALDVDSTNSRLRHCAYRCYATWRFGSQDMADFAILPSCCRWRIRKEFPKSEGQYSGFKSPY
In words: IL-1β release assay in THP-1 cells (sandwich ELISA). The conditions noted are these: PMA, LPS primed, stimulated with 0.8 mM BzATP, mature IL-1β release, read-out: hTHP-1/IL-ib IC50. On the set-up: release of mature IL-1β in the culture medium of THP-1 cells; endogenous in cells; host or cells: THP-1 cells (PMA-differentiated, LPS-primed). It counts as cell-based. The procedure: The activation of P2X7 by ATP leads to a fast transient activation of cells resulting in influx of Ca^2+ followed by conversion of pro-IL-1β to active IL-1β. The functional activity of P2X7 compounds was measured by the release of mature IL-1β in the culture medium of THP-1 cells, detected by sandwich ELISA. Cells were maintained in complete growth medium (RPMI 1640+10% HI-FCS+2 mM L-glutamine+1×PS). […] THP-1 cells were harvested from the flask in 50 ml by centrifugation for 3 min at 100 g. The cells were resuspended to 2×10^5 cells/ml in medium supplemented with 0.5 μM PMA and incubated. The cells were washed and resuspended to 1.5×10^5 cells/ml in medium complemented with 10 ng/ml LPS, and the cells were primed for 4 h at 37° C., 5% CO2. After addition of 20 μL of prediluted test compounds, blank, standard and control reagents, cells were incubated for a further 20 min at 37° C. and stimulated with 0.8 mM BzATP for 30 minutes. The cells were centrifuged, supernatant was collected and the presence of mature IL-1β was detected using Dual human IL-1b kit following manufacturer's instruction. The tetrahydrobenzodiazepine analogs effectively modulated the activity of P2X7 in the cells as measured by the levels of pro-inflammatory cytokine IL-1β, which is released by the activation of P2X7 receptor.

Test [2] has as its target T1, P2X7. In words: Pore permeation assay (YO PRO dye uptake, BzATP-induced). The format is cell-based. On the set-up: expressed in transfected cells; host or cells: HEK293. The conditions noted are these: HEK293 transfected with human P2X7 receptor; YO PRO dye 1 uM, BzATP 10 uM; read-out: hP2X7 IC50. As to the method:
Agonist-induced pore formation was determined by measuring cellular uptake of YO PRO fluorescence dye in HEK293 transfected with human P2X7 receptor. A HEK293 cell over expressing human P2X7 was harvested using HQTase reagent to detach the cells from T75 cm flask. The harvested cells are centrifuged @ 1200 rpm for 5 min at room temperature. The viability of cells was determined by Trypan blue dye and the cells are plated @ 10,000 cell/well in 50 ul volume in a 384 W BD Poly lysine coated plate and incubated overnight at 37 C. After overnight incubation, the culture medium was replaced with 35 ul/well assay buffer (5 mM KCl, 0.1 mM CaCl2, 5 mM Glucose, 10 mM HEPES buffer pH7.4 containing 125 mM NaCl. The serial dilution of compounds was performed using Bravo liquid handling instrument and the compounds were added using Bravo to the cell assay plate starting at 2.5 uM with three dilutions for 10 points. The positive control inhibitor compound was added to column 23. The plate was shaken slowly on a plate shaker for 10 seconds. The cells were incubated with the compound for 20 minutes at room temperature. After the incubation period, YO PRO dye (1 uM) along with BzATP (10 uM) were added to cells at 10 ul/well. The plate was centrifuged at 1000 rpm for 5 seconds and incubated at room temperature for 30 minutes. The uptake of YO PRO dye into the cells was measured using Envision Fluorescence plate reader instrument (Perkin Elmer).

Molecules are shown by their SMILES.

With `O=C(NC[C@]1(O)CCCC(F)(F)C1)c1c(Cl)ccc2nc(N3CCC(F)(F)C3)ccc12` [Compound 80, 6-Chloro-2-(3,3-difluoropyrrolidin-1-yl)-quinoline-5-carboxylic acid ((S)-3,3-difluoro-1-hydroxycyclohexylmethyl)-amide], the IC50 is > 1000 nM at P2X7 [1] and 101 to 500 nM on P2X7 [2].

As to `O=C(NCC1(O)CCCC(F)(F)C1)c1c(Cl)ccc2nc(N3CCC(F)(F)C3)ccc12` (stereo not shown) [Compound 46, 6-Chloro-2-(3,3-difluoropyrrolidin-1-yl)-quinoline-5-carboxylic acid (3,3-difluoro-1-hydroxycyclohexylmethyl)-amide], the IC50 on P2X7 [1] and at P2X7 [2] was 10 to 100 nM throughout.

`COCCCOc1ccc2c(C(=O)NCC3CCC(F)(F)CC3)c(Cl)ccc2n1` [Compound 69, 6-Chloro-2-(3-methoxy-propoxy)-quinoline-5-carboxylic acid (4,4-difluoro-cyclohexylmethyl)-amide]: the IC50 on P2X7 [1] lay in the range of 101 to 500 nM; at P2X7 [2] it was 10 to 100 nM.

With `CN(C)C1CCN(c2ccc3c(C(=O)NCC4CCC(F)(F)CC4)c(Cl)ccc3n2)C1` (stereo not shown) [Compound 52], the IC50 on P2X7 [1] is 101 to 500 nM; at P2X7 [2], 10 to 100 nM.

`O=C(NCC1CCC(F)(F)CC1)c1c(Cl)ccc2nc(N3CC[C@@H](CO)C3)ccc12` [Compound 12, 6-Chloro-2-((R)-3-hydroxymethyl-pyrrolidin-1-yl)-quinoline-5-carboxylic acid (4,4-difluoro-cyclohexylmethyl)-amide]: the values for the IC50 at P2X7 [1] and on P2X7 [2] were 101 to 500 nM and < 10 nM, respectively.

With `O=C(NCC1CCC(F)(F)CC1)c1c(Cl)ccc2nc(N3CCCC3)ccc12` [Compound 50], the values for the IC50 on P2X7 [1] and on P2X7 [2] were 101 to 500 nM and 10 to 100 nM, respectively.

In the case of `O=C(NCC1CCC(F)(F)CC1)c1c(Cl)ccc2nc(N3CC[C@@H](CCO)C3)ccc12` [Compound 26, 6-Chloro-2-((S)-3-hydroxyethyl-pyrrolidin-1-yl)-quinoline-5-carboxylic acid (4,4-difluoro-cyclohexylmethyl)-amide], the IC50 on P2X7 [1] was in the range of 101 to 500 nM; at P2X7 [2] it was 10 to 100 nM.

For the molecule `O=C(NCC1(O)CCCC(F)(F)C1)c1c(Cl)ccc2nc(N3CC(F)(F)C3)ccc12` (stereo not shown) [Compound 75, 6-Chloro-2-(3,3-difluoroazetidin-1-yl)-quinoline-5-carboxylic acid (3,3-difluoro-1-hydroxycyclohexylmethyl)-amide], the IC50 at P2X7 [1] and at P2X7 [2] was 101 to 500 nM throughout.

For `O=C(NCC1CCC(F)(F)CC1)c1c(Cl)ccc2nc(C3=CCCC3)ccc12` [Compound 42, 6-Chloro-2-cyclopent-1-enyl-quinoline-5-carboxylic acid (4,4-difluoro-cyclohexyl methyl)-amide], the IC50 on P2X7 [1] was in the range of 101 to 500 nM; at P2X7 [2], 10 to 100 nM.

Take `O=C(NCC1(O)CCCC(F)(F)C1)c1c(Cl)ccc2nc(N3CC[C@@H](F)C3)ccc12` (stereo partly drawn) [Compound 37, 6-Chloro-2-((R)-3-fluoropyrrolidin-1-yl)-quinoline-5-carboxylic acid (3,3-difluoro-1-hydroxycyclohexylmethyl)-amide]: the IC50 at P2X7 [1] and at P2X7 [2] was 10 to 100 nM throughout.

Regarding `CN(C)c1ccc2c(C(=O)NCC3CCC(F)(F)CC3)c(Cl)ccc2n1` [Compound 44], the IC50 at P2X7 [1] and at P2X7 [2] was 10 to 100 nM in each case.

Turning to `O=C(NCC1CCCC(F)(F)C1)c1c(Cl)ccc2nc(N3CC[C@@H](F)C3)ccc12` (stereo partly drawn) [Compound 1, 6-Chloro-2-((R)-3-fluoropyrrolidin-1-yl)-quinoline-5-carboxylic acid (3,3-difluoro-cyclohexylmethyl)-amide], the IC50 is 10 to 100 nM at P2X7 [1] and < 10 nM on P2X7 [2].

Consider `O=C(NCC1CCCC(F)(F)C1)c1c(Cl)ccc2nc(N3CCC(CCO)C3)ccc12` (stereo not shown) [Compound 63, 6-Chloro-2-(3-hydroxyethyl-pyrrolidin-1-yl)-quinoline-5-carboxylic acid (3,3-difluoro-cyclohexylmethyl)-amide], for which the values for the IC50 at P2X7 [1] and at P2X7 [2] were 101 to 500 nM and 10 to 100 nM, respectively.

Turning to `O=C(NCC1(O)CCCCCC1)c1c(Cl)ccc2ncccc12` [Compound 65], the results for the IC50 on P2X7 [1] and at P2X7 [2] were 101 to 500 nM and 10 to 100 nM, respectively.

As for `O=C(NCC1(O)CCCC(F)(F)C1)c1c(Cl)ccc2nc(N3CC[C@H](F)C3)ccc12` (stereo partly drawn) [Compound 36, 6-Chloro-2-((S)-3-fluoropyrrolidin-1-yl)-quinoline-5-carboxylic acid (3,3-difluoro-1-hydroxycyclohexylmethyl)-amide], the IC50 at P2X7 [1] and at P2X7 [2] was 10 to 100 nM throughout.

For `CN(C)C1CCN(c2ccc3c(C(=O)NCC4(O)CCC(F)(F)CC4)c(Cl)ccc3n2)C1` (stereo not shown) [Compound 28, 6-Chloro-2-(3-dimethylamino-pyrrolidin-1-yl)-quinoline-5-carboxylic acid (4,4-difluoro-1-hydroxy-cyclohexylmethyl)-amide], the IC50 at P2X7 [1] and at P2X7 [2] was 10 to 100 nM in each case.

As for `O=C(NCC1CCCC(F)(F)C1)c1c(Cl)ccc2nc(N3CC[C@H](F)C3)ccc12` (stereo partly drawn) [Compound 3, 6-Chloro-2-((S)-3-fluoropyrrolidin-1-yl)-quinoline-5-carboxylic acid (3,3-difluoro-cyclohexylmethyl)-amide], the IC50 at P2X7 [1] was 101 to 500 nM; at P2X7 [2], < 10 nM.

As to `O=C(NCC1CCC(F)(F)CC1)c1c(Cl)ccc2nc(N3CCC(NCCO)C3)ccc12` (stereo not shown) [Compound 21], the IC50 on P2X7 [1] and at P2X7 [2] was 10 to 100 nM throughout.

Consider `O=C(NCC1CCC(F)(F)CC1)c1c(Cl)ccc2nc(C3CCCCC3)ccc12` [Compound 48, 6-Chloro-2-cyclohexyl-quinoline-5-carboxylic acid (4,4-difluoro-cyclohexylmethyl)-amide], for which the IC50 at P2X7 [1] was in the range of 101 to 500 nM; at P2X7 [2], 10 to 100 nM.

Consider `NC1CCN(c2ccc3c(C(=O)NCC4CCC(F)(F)CC4)c(Cl)ccc3n2)C1` (stereo not shown) [Compound 18], for which the IC50 on P2X7 [1] was 10 to 100 nM; on P2X7 [2], < 10 nM.

As to `CC(=O)NC1CCN(c2ccc3c(C(=O)NCC4CCC(F)(F)CC4)c(Cl)ccc3n2)C1` (stereo not shown) [Compound 67, 2-(3-Acetylamino-pyrrolidin-1-yl)-6-chloro-quinoline-5-carboxylic acid (4,4-difluoro-cyclohexylmethyl)-amide], the IC50 is 101 to 500 nM on P2X7 [1] and 10 to 100 nM on P2X7 [2].

For the molecule `CN(C)[C@H]1CCN(c2ccc3c(C(=O)NCC4(O)CCC(F)(F)CC4)c(Cl)ccc3n2)C1` [Compound 20, 6-Chloro-2-((S)-3-dimethylamino-pyrrolidin-1-yl)-quinoline-5-carboxylic acid (4,4-difluoro-1-hydroxy-cyclohexylmethyl)-amide], the IC50 at P2X7 [1] and on P2X7 [2] was 10 to 100 nM in each case.

On to `COCCCOc1ccc2c(C(=O)NCC3(O)CCC(F)(F)CC3)c(Cl)ccc2n1` [Compound 62, 6-Chloro-2-(3-methoxy-propoxy)-quinoline-5-carboxylic acid (4,4-difluoro-1-hydroxy-cyclohexyl methyl)-amide], for which the IC50 on P2X7 [1] lay in the range of 101 to 500 nM; at P2X7 [2], 10 to 100 nM.
